Data taken from patent publication EP1263429B1, “ANTIVIRAL THERAPY” (Universiteit Utrecht, priority 2000, dated 2001).

System: HIV-1
Assay: IC50 determination of an anti-viral (Table 3)
Type: cell-based
Settings: Human immunodeficiency virus 1

With `CCCCC#CCSc1ccccc1OCCCC` [BPHS] the IC50 was 40 µM.
